This is an account of results in ChEMBL document CHEMBL1152257, “New diterpenoids and the bioactivity of Erythrophleum fordii” (Bioorg Med Chem, 2008).

Some results are limits rather than exact numbers.

The target of assay [1] is T1, Nitric oxide synthase, inducible (Mus musculus, UniProt P29477).
T1 sequence (P29477 whole entry): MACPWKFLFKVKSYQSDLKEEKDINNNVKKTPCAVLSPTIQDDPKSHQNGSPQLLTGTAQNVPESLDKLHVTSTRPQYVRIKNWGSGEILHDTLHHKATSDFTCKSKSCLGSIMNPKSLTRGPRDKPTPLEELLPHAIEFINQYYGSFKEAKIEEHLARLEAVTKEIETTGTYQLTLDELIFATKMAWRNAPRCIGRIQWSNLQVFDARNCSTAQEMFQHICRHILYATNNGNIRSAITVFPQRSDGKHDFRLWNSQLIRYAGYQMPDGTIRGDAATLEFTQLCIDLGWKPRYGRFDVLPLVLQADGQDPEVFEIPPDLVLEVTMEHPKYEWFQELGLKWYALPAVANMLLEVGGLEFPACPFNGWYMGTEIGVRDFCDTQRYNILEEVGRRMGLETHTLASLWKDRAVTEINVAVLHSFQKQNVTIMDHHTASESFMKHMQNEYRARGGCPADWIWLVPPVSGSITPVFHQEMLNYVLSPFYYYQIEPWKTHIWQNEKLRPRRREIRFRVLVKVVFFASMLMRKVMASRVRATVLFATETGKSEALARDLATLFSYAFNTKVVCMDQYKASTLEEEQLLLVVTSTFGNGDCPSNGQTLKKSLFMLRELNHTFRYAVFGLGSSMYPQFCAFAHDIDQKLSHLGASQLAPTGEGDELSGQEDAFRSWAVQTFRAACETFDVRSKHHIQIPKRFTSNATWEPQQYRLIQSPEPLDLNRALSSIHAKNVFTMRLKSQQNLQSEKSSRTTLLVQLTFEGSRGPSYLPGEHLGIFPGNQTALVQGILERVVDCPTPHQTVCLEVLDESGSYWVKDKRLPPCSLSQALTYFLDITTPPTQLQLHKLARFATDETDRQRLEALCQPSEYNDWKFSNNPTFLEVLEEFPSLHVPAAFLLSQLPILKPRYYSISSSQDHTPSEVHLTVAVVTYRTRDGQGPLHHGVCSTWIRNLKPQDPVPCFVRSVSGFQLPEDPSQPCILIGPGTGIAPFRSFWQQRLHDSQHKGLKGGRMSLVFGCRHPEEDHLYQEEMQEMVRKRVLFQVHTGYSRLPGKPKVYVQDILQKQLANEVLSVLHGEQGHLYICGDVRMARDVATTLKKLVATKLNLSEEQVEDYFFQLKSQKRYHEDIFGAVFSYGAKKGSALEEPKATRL
The experiment in a line: Inhibition of iNOS-mediated NO production in LPS-induced mouse BV2 cells. Format: cell-based, BV-2.

A further assay concerns BV-2. The experiment in a line: Inhibition of NADPH oxidase in LPS-induced mouse BV2 cells assessed as NOX-dependent ROS production at 50 uM. Format: cell-based.
The subject of assay [2] is Radical scavenging activity. Nature of the assay: Antioxidant activity assessed as DPPH radical scavenging activity at 50 uM. Format: functional.

With `C=CC(C)(C)c1[nH]c2c(CC=C(C)C)cc(CC=C(C)C)cc2c1C[C@@H]1NC(=O)[C@H](C)NC1=O` [ECHINULIN], the IC50 (commonly the concentration that inhibits the measured activity by half) in assay [1] is > 50 µM. Besides, the inhibition (as a rule, the share of the control response that was lost under treatment) in the assay with BV-2 was 8.8%.

As to `Cc1c(C)c2c(c(C)c1O)CCC(C)(C(=O)O)O2` (stereo unspecified), the Activity in assay [2] came out at 85.7%. Take `c1ccc2c(c1)[I+]c1ccccc1-2`: in the assay with BV-2, the inhibition was 85.1%.

Regarding `CC1(C)CC[C@]2(C)CC[C@]3(C)C(=CC[C@@H]4[C@@]5(C)CCC(=O)C(C)(C)[C@@H]5CC[C@]43C)[C@@H]2C1`, the IC50 in assay [1] is > 50 µM. Further, the inhibition in the assay with BV-2 turned out to be 0%.

Regarding `CC(=O)O[C@H]1CC[C@@H]2C(=CC[C@H]3[C@@]2(C)CC[C@@]2(C)[C@@H]4CC(C)(C)CC[C@]4(C)CC[C@]32C)C1(C)C` [GLUTINOL ACETATE], in assay [1], the IC50 was > 50 µM. For the same compound, in the assay on BV-2, the inhibition was 10.8%.

For the compound `C[C@@H](O)/C=C/[C@@]1(O)C(C)(C)C[C@H](O)C[C@@]1(C)O`, the IC50 in assay [1] is > 50 µM. For the same compound, in the assay with BV-2, the inhibition was 25.2%.

Turning to `CC1(C)CC[C@]2(C)CC[C@]3(C)[C@H]4CC=C5[C@@H](CCC(=O)C5(C)C)[C@]4(C)CC[C@@]3(C)[C@@H]2C1` [GLUTINONE], in assay [1], the IC50 was > 50 µM. Moreover, the inhibition with BV-2 was 6.6%. Turning to `CC1(C)CC[C@]2(C)CC=C3[C@]4(C)CC[C@H]5C(C)(C)[C@@H](O)CC[C@]5(C)[C@H]4CC[C@@]3(C)[C@@H]2C1` [TARAXEROL], in assay [1], the midpoint of inhibition, the IC50, lay at 24.2 µM. Besides, the inhibition in the assay with BV-2 is 11.6%. With `C[C@@H]1O[C@@H](Oc2c(-c3ccc(O)cc3)oc3cc(O)cc(O)c3c2=O)[C@H](O)[C@H](O)[C@H]1O`, the inhibition in the assay on BV-2 worked out at 6%.

On to `CC[C@H](CC[C@@H](C)[C@H]1CC[C@H]2[C@@H]3[C@@H](O)C=C4C[C@@H](O)CC[C@]4(C)[C@H]3CC[C@]12C)C(C)C`, for which, in assay [1], the IC50 was > 50 µM. Moreover, the inhibition with BV-2 was 17.1%. Take `O=C(O)c1cc(O)c(O)c(O)c1` [GALLIC ACID]: the IC50 in assay [1] was > 50 µM. The inhibition in the assay with BV-2 came to 21.5%. Besides, the Activity in assay [2] was found to be 85.6%.

Turning to `CC(=O)O[C@H]1CC[C@]2(C)[C@H]3CC=C4[C@@H]5CC(C)(C)CC[C@]5(C)CC[C@@]4(C)[C@]3(C)CC[C@H]2C1(C)C` [beta-AMYRIN ACETATE], the IC50 in assay [1] is > 50 µM. Further, in the assay with BV-2, the inhibition was determined as 9.2%.

Consider `CC[C@H](/C=C/[C@@H](C)[C@H]1CC[C@H]2C3=CC[C@H]4C[C@@H](O)CC[C@]4(C)[C@H]3CC[C@]12C)C(C)C`, for which the IC50 in assay [1] is > 50 µM. Further, the inhibition in the assay on BV-2 worked out at 8.7%. In the same order, the values of `C[C@@H]1[C@@H](O)CC[C@]2(C)[C@H]3CC/C(=C\C(=O)O)[C@H](C)[C@@H]3[C@@H](O)C(=O)[C@@H]12` [NORERYTHROFORDIN A] are > 50 µM and 8.6%.

Compound `CC1(C)CC[C@]2(C)CC=C3[C@]4(C)CC[C@H]5C(C)(C)C(=O)CC[C@]5(C)[C@H]4CC[C@@]3(C)[C@@H]2C1` [TARAXERONE] came in with an IC50 in assay [1] of 46.5 µM. In the assay with BV-2, the inhibition worked out at 5.2%. Regarding `CO[C@H]1[C@H](O)[C@@H](O)[C@@H](O)[C@H](O)[C@@H]1O` [METHYLINOSITOL], the IC50 in assay [1] was > 50 µM. In the assay with BV-2, the inhibition came to 16.5%. Take `CC[C@H](CC[C@@H](C)[C@H]1CC[C@H]2[C@@H]3C[C@@H](O)C4=C[C@@H](O)CC[C@]4(C)[C@H]3CC[C@]12C)C(C)C`: the IC50 in assay [1] was > 50 µM. Besides, in the assay with BV-2, the inhibition worked out at 1.6%. `CC1(C)CC[C@]2(C)CC[C@]3(C)[C@H]4CC=C5[C@@H](CC[C@H](O)C5(C)C)[C@]4(C)CC[C@@]3(C)[C@@H]2C1` [GLUTINOL]: the IC50 in assay [1] was > 50 µM. Further, the inhibition in the assay on BV-2 was determined as 19.2%.

On to `C[C@H]1C(=O)CC[C@@H]2[C@]1(C)CC[C@H]1[C@@]2(C)CC[C@@]2(C)[C@@H]3CC(C)(C)CC[C@]3(C)CC[C@]12C` [FRIEDELINE], for which the IC50 in assay [1] was > 50 µM. In addition, the inhibition in the assay on BV-2 came to 4.2%.
